Assay results from paper PMC5394417, “Investigating the molecular mechanism of positive and negative allosteric modulators in the calcium-sensing receptor dimer” (Scientific Reports, 2017).
Substitutions are numbered along the chain they refer to. Several values for one entry are separate records, joined by “and”; a condition that tells them apart may be missing. Identical values can stand only once.

Molecular target: T1, HA-S170A + myc-F801A (S170A:F801A heterodimer) (Rattus norvegicus, UniProt P48442, F801A/S170A)
T1 construct: mGluR5 signal peptide (N); expressed in transfected cells; host or cells: HEK293T
T1 sequence (P48442 20-1079 S170A): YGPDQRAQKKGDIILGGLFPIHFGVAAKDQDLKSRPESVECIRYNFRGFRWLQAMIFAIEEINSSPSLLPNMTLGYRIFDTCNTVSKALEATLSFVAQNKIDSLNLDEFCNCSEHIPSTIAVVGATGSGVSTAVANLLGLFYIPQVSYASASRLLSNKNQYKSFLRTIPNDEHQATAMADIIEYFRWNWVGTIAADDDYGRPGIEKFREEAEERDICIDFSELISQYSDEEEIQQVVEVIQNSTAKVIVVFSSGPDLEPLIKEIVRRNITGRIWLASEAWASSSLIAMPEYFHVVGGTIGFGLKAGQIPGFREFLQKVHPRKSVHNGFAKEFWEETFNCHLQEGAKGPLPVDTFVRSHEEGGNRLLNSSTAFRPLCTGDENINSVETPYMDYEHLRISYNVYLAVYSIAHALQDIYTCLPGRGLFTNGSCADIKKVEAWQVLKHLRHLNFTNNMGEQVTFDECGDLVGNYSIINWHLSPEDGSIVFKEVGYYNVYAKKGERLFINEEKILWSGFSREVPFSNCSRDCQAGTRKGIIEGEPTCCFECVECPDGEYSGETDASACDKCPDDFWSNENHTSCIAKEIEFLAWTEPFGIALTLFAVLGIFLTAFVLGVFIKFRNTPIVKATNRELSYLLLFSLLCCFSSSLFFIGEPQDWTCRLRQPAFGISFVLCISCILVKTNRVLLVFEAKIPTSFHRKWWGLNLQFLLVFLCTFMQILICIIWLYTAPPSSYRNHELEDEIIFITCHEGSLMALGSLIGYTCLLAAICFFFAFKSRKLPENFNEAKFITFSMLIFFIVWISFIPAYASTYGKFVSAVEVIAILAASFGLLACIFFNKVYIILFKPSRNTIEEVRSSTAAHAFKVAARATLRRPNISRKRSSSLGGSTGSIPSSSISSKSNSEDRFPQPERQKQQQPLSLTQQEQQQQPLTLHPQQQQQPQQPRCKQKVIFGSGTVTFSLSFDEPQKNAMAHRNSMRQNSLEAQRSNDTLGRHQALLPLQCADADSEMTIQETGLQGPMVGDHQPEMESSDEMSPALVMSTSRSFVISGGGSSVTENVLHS
T1 sequence (P48442 20-1079 F801A): T1 sequence (P48442 20-1079 S170A) with A151S, F782A
Assay: IP-One trans-activation assay, co-expression 1:1 in HEK293T
Assay type: cell-based
Protocol: Human embryonic kidney (HEK) 293T cells were cultured in DMEM supplemented with 10% dFBS and 1% P/S at 37 °C and 5% CO2. 48 h prior to assay, transient transfection was performed using Lipofectamine 2000 as the transfection reagent. White opaque 96-well culture plates (PerkinElmer, Waltham, MA, USA) were used for the ELISA and the TR-FRET dimerization assay, while clear tissue culture treated 96-well plates (Corning, Corning, NY, USA) were used for the IP-One assay. Both plate types were coated with poly-D-lysine before addition of cells and transfection mix. 0.25 μl/well of Lipofectamine 2000 were diluted in 25 μl/well of Opti-MEM and incubated at room temperature (RT) for 5 min. 0.03 μg/well of DNA was diluted in 25 μl/well of Opti-MEM, and subsequently mixed with the Lipofectamine 2000 dilution and incubated 20 min at RT before addition to the plates. Cell suspensions of 170.000 HEK293T cells/mL were prepared in complete growth medium and 100 μl/well (17.000 cells/well) was added to the plates, which were incubated for 48 h at 37 °C and 5% CO2 before performing assays.
Functional activity was measured using the IP-One assay, which is an IP1 accumulation assay. For agonist testing, ligands were prepared in final concentrations in ligand buffer (HBSS, 20 mM HEPES, pH 7.4 supplemented with 20 mM LiCl). Cells were washed once with 100 μl/well of assay buffer (HBSS, 20 mM HEPES, pH 7.4) and 50 μl/well of agonist solution was added after which plates were incubated at 37 °C for 30 min. Subsequently, ligand solutions were removed and cells were washed with 100 μl/well of assay buffer. Cell lysis was performed by addition of 30 μl/well of IP-One Conjugate & Lysis Buffer (Cisbio Bioassays, Codolet, France) and plates were incubated at RT for 30 min. Afterwards, 30 μl/well of assay buffer was added to dilute the cell lysate. 10 μl/well of cell lysate was transferred from the 96-well plate to a 384-well Optiplate and 10 μl/well of detection solution (Assay buffer + 2.5% of anti-IP1 antibody cryptate Terbium conjugate + 2.5% IP1-d2 conjugate (Cisbio Bioassays, Codolet, France)) was also added. The 384-well plate was incubated for 1 h at RT in dark before being measured on an EnVision plate reader (PerkinElmer, Waltham, MA, USA). Upon excitation at 340 nm, emission at 615 nm and 665 nm was measured, and the FRET ratio (665 nm/615 nm) was converted to IP1 concentrations by interpolating values from an IP1 standard curve generated from a provided IP1 calibrator (Cisbio Bioassays, Codolet, France). When testing allosteric modulators, cells were pre-incubated for 30 min at 37 °C with 50 μl/well of ligand buffer supplemented with allosteric modulator and a final concentration of 1% DMSO. Afterwards, the buffer solution was removed and 50 μl/well of agonist solution in ligand buffer supplemented with allosteric modulator and a final concentration of 1% DMSO was added. Plates were incubated for 30 min at 37 °C followed by one wash in 100 μl/well of assay buffer. Cell lysis and detection was performed as described above.

[1] = HA-S170A + myc-F801A trans-activation response, Ca^2+ alone

## [Ca+2] [Ca^2+]
[1]
  EC50: 12.7 mM
  Hill coefficient ± S.E.M.: 2.69 ± 0.19
  pEC50 ± S.E.M.: 1.90 ± 0.03
HA-S170A + myc-F801A, maximum trans-activation response normalized to maximum response of WT CaSR
  Max ± S.E.M.: 30% and 30 ± 1.9%

## CC(C)(Cc1ccc2ccccc2c1)NC[C@@H](O)COc1cccc(Cl)c1C#N.Cl [NPS 2143, NPS 2143 hydrochloride]
S170A:F801A heterodimer, highest tested NPS 2143 concentration (5 μM)
  inhibition of Ca^2+-mediated response: full inhibition

## COc1cccc([C@@H](C)NCCCc2ccccc2Cl)c1.Cl [NPS R-568, NPS R-568 hydrochloride]
S170A:F801A heterodimer, 0.05, 0.1 and 1 μM NPS R-568
  potentiation of Ca^2+-mediated response: concentration-dependent potentiation
